Values quoted from earlier work, collected in patent US10350288B2, “Methods and compositions for treating herpes” (Genocea Biosciences, Inc., priority 2016, dated 2019).
Where two headings read alike, the source gives them in different places.

Tests used:
HSV [1] = conditions: patients with genital herpes
HSV [2] = conditions: once-daily; efficacy comparable to valacyclovir twice daily for 3 days
HSV-2 [3] = conditions: human, in vivo
HSV-2 [4] = test system: HSV-2

SMILES: Nc1nc2c(ncn2CCC(CO)CO)c(=O)[nH]1 [Penciclovir, penciclovir]
- oral bioavailability: not orally bioavailable

SMILES: Cc1nc(N(C)C(=O)Cc2ccc(-c3ccccn3)cc2)sc1S(N)(=O)=O [Pritelivir, pritelivir]
- reduction of viral shedding and lesion rate (HSV [1]): has shown efficacy

SMILES: Cc1cccc(C)c1N(CC(=O)Nc1ccc(-c2ncon2)cc1)C(=O)C1CCS(=O)(=O)CC1 [amenamevir]
- time to lesion healing shortened by (HSV [2]): 1 to 2 days

SMILES: CC(C)[C@H](N)C(=O)OCCOCn1cnc2c(=O)[nH]c(N)nc21 [valacyclovir]
- reduction of transmission of HSV-2 from infected persons to uninfected partners (HSV-2 [3]): 48%
- proportion of patients who remained recurrence-free (HSV-2 [4]; at 6 months, placebo 7%): 55%
- proportion of patients who remained recurrence-free (HSV-2 [4]; at 12 months, placebo 4%): 34%
